From ChEMBL document CHEMBL1201862, “PubChem BioAssay data set” (2004)
Each block holds one compound with its values, some of them ahead of it. The source made the active and inactive calls.

Legend:
SUMO-activating enzyme [1] = biological target: T1, SUMO-activating enzyme (Homo sapiens, UniProt Q9UBT2); experiment: SUMOylation inhibitor hit validation, confirmation, SUMOylation inhibitor project, biochemical, AlphaScreen (AID 2018); format: functional
SUMO-activating enzyme [2] = biological target: T1, SUMO-activating enzyme; experiment: inhibitors of in vitro SUMOylation cascade, primary screen, biochemical, HTRF, uHTS (AID 2006); format: protein-complex assay
[3] = biological target: Induced myeloid leukemia cell differentiation protein Mcl-1 (Homo sapiens, UniProt Q07820); format: functional
Induced myeloid leukemia cell differentiation protein Mcl-1, sequence (Q07820 whole entry, the tested form may be a part): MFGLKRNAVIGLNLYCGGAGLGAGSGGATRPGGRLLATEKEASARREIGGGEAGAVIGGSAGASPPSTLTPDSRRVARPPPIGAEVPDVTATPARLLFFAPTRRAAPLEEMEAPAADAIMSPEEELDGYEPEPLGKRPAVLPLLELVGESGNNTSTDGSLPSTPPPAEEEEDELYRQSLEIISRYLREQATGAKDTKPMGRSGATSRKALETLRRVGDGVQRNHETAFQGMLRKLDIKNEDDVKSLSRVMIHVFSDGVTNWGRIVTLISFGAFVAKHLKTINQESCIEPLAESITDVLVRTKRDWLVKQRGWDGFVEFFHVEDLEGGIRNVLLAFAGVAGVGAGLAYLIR

[4] = biological target: T2, Oxysterols receptor LXR-beta (Homo sapiens, UniProt P55055); experiment: LXR agonists, Gal4 luciferase reporter, dose response, counter-screen for ssDAF-12 agonist project, cell-based, luminescence, HEK293, S. stercoralis campaign (AID 720737); format: functional; conditions: read-out: IC50 (the source's name)
T2 sequence (P55055 whole entry): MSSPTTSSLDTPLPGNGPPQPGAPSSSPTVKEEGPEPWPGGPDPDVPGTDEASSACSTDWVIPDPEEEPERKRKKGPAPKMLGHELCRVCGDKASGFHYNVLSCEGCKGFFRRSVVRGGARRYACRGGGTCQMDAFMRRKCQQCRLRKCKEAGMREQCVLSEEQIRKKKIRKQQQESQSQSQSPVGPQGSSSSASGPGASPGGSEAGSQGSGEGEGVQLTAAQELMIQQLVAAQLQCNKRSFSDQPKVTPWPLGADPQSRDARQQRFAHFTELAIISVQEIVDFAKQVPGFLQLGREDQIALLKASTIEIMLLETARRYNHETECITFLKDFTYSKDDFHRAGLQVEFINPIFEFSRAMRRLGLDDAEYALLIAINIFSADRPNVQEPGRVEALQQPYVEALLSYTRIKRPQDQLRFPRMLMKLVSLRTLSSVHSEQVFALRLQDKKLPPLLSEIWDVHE

[5] = Luminescence-based cell-based high throughput dose response assay to identify activators of the DAF-12 from the parasite S. stercoralis (ssDAF-12).; format: functional
[6] = biological target: T3, Rac GTPase-activating protein 1 (Homo sapiens, UniProt Q9H0H5); experiment: MgcRacGAP GTPase-activating activity inhibitors, confirmation, biochemical, ADP Hunter fluorescence, primary and confirmatory (AID 624330); format: functional
T3 sequence (Q9H0H5 whole entry): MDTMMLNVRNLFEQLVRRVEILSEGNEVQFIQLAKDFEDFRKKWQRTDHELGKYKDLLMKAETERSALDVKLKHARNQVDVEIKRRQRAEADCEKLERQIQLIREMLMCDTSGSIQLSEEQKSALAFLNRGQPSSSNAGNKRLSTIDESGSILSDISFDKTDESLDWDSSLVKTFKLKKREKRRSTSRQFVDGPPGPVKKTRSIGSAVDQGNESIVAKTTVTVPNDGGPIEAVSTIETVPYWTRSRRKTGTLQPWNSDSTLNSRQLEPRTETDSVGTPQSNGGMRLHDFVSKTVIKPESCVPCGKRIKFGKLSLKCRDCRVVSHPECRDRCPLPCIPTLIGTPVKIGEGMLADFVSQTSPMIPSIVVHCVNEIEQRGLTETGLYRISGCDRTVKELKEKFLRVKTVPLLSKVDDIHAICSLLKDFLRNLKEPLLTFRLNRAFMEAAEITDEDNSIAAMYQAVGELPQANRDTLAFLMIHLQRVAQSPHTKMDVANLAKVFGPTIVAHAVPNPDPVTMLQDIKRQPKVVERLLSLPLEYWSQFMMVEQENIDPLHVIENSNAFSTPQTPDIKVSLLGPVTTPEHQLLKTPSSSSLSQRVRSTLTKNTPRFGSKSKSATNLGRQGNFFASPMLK

[7] = HepG2 cell cytotoxicity, dose response, cytotoxicity control for Shn3 inhibitor project, CellTiter-Glo, cherry-picked (AID 624134); format: functional, cell-based
[8] = control 3'UTR Renilla luciferase suppression, dose response, counter-screen for Shn3 inhibitor project, cell-based, Clone20-Shn3RL, cherry-picked (AID 624133); format: functional
[9] = Shn3 3'UTR reporter inhibitors, dose response, cell-based, Clone20 osteoblasts, firefly luciferase, cherry-picked (AID 624132); format: functional;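 note: firefly luciferase luminescence from reporter carrying the Shn3 3'UTR in osteoblasts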
[10] = HeLa cell cytotoxicity, dose response, cytotoxicity control for MgcRacGAP inhibitor project (AID 624300); format: functional
[11] = biological target: T4, DNA repair protein RAD52 homolog (Homo sapiens, UniProt P43351); format: functional, biochemical
T4 sequence (P43351 whole entry): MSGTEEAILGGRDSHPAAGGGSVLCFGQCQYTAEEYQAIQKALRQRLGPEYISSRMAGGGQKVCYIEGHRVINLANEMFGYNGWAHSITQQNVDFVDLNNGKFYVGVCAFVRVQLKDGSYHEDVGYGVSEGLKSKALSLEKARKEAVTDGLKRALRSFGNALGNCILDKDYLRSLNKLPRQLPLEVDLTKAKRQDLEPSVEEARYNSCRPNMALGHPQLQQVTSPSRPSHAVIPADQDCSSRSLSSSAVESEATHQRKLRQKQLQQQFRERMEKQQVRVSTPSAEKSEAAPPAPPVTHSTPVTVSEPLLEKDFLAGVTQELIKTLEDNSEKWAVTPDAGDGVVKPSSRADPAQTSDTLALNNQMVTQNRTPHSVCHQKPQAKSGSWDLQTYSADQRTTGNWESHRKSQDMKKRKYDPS

[12] = biological target: T5, Histone-lysine N-methyltransferase NSD2 (Homo sapiens, UniProt O96028); format: biochemical
T5 sequence (O96028 whole entry): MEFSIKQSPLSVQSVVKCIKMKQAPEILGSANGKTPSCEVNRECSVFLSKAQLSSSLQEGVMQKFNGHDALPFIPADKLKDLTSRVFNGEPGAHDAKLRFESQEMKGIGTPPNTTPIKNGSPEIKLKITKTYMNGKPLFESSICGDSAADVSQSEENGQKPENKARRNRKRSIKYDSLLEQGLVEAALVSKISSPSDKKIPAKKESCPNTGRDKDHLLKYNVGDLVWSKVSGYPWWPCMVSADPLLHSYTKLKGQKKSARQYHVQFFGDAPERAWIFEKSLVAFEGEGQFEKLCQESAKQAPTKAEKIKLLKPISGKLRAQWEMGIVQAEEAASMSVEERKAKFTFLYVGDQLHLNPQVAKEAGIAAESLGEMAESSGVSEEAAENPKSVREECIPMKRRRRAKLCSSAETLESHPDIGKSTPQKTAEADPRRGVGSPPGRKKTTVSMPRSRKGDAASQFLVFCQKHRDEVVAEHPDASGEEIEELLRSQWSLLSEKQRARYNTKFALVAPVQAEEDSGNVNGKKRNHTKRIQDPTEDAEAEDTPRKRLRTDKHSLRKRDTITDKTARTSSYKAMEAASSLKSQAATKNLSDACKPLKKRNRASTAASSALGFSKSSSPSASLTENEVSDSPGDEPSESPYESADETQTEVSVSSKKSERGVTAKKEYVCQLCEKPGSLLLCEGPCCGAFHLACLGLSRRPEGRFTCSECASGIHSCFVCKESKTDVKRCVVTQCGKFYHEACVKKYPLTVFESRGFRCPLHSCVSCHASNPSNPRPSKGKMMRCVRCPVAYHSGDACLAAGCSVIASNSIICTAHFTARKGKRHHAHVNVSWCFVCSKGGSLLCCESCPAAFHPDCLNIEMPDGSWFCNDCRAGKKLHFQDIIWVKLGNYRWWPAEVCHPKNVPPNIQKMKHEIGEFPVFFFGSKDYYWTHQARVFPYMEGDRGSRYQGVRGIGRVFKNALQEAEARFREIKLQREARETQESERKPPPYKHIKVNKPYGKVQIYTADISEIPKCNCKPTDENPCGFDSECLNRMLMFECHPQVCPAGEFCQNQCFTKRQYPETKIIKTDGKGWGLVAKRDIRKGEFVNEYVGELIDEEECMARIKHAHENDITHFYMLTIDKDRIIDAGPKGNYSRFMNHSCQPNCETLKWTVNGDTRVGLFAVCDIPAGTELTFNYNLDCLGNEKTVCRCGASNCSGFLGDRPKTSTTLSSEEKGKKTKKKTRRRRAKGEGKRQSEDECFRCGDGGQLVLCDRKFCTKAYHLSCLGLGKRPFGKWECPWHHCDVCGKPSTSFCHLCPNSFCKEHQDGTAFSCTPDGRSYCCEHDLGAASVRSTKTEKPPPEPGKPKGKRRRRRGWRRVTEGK

Paired box protein Pax-8 = Paired box protein Pax-8 (Homo sapiens, UniProt Q06710); experiment: inhibitors of PAX8-driven TPO luciferase reporter, dose response, RMG-I cells, cherry-pick (AID 687027); format: functional, cell-based;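 note: luciferase reporter driven by Pax8 target thyroperoxidase promoter measured by SteadyGlo luminescence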
Paired box protein Pax-8, sequence (Q06710 whole entry): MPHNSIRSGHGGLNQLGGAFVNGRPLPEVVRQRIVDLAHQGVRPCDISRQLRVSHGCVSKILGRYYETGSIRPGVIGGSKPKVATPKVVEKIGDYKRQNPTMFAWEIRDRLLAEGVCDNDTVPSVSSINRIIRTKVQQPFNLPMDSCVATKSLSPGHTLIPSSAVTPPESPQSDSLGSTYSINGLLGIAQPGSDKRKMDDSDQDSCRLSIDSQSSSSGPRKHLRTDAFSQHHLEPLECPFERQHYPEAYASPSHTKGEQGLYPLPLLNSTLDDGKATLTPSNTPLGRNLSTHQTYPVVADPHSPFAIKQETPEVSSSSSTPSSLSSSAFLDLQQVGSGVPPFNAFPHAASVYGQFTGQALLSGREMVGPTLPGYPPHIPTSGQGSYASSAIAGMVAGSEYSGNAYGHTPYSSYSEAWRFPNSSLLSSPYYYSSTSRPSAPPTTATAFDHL

[13] = Cytotoxicity screening for potential Inhibitors of Bacterial Capsule Biogenesis. [Related pubchem assays (depositor defined):AID488970]; format: functional
[14] = biological target: Sphingosine 1-phosphate receptor 2 (Homo sapiens, UniProt O95136); experiment: Dose Response Cell Based Assay for Antagonists of the S1P2 Receptor. [Related pubchem assays: 856, 736 ]; format: functional
Sphingosine 1-phosphate receptor 2, sequence (O95136 whole entry): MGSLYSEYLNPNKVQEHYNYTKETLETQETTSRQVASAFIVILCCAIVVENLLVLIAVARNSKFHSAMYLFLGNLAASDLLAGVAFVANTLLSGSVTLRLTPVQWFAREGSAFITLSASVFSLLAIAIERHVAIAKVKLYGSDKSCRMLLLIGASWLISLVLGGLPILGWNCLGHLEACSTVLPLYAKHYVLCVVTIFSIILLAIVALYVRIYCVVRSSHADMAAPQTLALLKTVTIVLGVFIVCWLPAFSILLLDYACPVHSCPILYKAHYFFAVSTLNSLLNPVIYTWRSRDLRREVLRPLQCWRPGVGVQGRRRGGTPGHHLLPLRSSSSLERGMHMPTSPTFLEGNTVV

Beta-galactosidase = Beta-galactosidase (Escherichia coli, UniProt Q8VNN2); format: functional
Beta-galactosidase, sequence (Q8VNN2 whole entry): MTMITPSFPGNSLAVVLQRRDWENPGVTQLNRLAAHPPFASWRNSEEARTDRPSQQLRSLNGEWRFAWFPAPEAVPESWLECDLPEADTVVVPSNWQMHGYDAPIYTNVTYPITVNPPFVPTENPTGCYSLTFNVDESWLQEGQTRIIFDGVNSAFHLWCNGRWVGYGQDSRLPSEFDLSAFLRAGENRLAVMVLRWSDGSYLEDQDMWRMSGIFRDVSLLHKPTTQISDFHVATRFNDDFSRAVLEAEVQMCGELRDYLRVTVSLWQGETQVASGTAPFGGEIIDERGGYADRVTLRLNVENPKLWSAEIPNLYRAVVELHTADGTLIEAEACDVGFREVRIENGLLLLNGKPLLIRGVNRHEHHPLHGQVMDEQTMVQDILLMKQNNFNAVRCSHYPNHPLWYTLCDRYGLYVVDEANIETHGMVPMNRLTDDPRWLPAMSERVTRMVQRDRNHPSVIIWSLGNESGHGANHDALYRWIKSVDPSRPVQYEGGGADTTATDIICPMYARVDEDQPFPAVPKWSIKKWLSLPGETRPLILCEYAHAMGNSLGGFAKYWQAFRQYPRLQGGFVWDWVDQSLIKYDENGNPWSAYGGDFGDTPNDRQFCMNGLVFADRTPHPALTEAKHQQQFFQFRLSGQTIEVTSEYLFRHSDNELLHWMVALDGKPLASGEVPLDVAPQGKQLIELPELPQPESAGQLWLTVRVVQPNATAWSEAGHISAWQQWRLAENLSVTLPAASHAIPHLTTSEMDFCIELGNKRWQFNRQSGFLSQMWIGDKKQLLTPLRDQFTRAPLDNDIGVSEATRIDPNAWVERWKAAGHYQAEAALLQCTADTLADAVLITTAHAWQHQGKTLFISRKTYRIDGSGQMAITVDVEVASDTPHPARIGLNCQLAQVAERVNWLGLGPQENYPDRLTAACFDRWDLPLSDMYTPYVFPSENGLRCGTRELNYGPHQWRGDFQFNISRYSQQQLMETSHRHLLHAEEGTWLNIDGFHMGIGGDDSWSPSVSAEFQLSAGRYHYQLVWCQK

[15] = biological target: T6, Kappa-type opioid receptor (Homo sapiens, UniProt P41145); format: functional
T6 sequence (P41145 whole entry): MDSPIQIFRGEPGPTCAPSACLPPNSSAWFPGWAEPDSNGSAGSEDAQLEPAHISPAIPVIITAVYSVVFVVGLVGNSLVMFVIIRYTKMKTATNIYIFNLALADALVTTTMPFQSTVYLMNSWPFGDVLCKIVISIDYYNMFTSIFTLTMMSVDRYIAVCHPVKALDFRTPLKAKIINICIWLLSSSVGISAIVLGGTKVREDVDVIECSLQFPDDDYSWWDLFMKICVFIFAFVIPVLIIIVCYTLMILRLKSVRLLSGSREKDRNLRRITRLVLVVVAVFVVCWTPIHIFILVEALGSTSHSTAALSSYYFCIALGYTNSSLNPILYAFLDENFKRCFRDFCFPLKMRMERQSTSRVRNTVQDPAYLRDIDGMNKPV

[16] = biological target: T6, Kappa-type opioid receptor; format: functional; remark: listed apart in the source
[17] = biological target: T7, Heat shock factor protein 1 (Mus musculus, UniProt P38532); experiment: HSF1 potentiators in luciferase reporter cells, confirmation, cell-based, NIH3T3, luminescence, dose retest (AID 435004); format: functional;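 note: stress induced by proteasome inhibitor MG132 added 30 min after compound; luciferase reporter driven by HSF1 response element in NIH3T3 cells; actives raise luminescence as potentiators of the MG132 stress response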
T7 sequence (P38532 whole entry): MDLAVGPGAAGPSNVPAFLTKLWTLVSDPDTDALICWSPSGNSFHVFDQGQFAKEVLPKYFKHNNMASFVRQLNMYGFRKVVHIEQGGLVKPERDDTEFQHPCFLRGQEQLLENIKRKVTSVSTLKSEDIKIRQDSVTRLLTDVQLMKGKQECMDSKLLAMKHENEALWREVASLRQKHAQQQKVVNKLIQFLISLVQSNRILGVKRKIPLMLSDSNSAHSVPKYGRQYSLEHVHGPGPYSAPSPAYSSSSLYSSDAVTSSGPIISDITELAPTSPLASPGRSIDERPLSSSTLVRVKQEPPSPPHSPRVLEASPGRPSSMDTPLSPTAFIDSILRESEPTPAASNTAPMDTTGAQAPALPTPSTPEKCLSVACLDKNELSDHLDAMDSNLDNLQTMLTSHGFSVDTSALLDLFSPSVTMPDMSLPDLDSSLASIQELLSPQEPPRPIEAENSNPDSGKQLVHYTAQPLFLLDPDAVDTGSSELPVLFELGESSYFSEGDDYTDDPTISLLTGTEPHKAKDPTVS

[18] = biological target: Heat shock protein HSP 90-alpha (Homo sapiens, UniProt P07900); format: functional, organism-based

T1 sequence (Q9UBE0 whole entry): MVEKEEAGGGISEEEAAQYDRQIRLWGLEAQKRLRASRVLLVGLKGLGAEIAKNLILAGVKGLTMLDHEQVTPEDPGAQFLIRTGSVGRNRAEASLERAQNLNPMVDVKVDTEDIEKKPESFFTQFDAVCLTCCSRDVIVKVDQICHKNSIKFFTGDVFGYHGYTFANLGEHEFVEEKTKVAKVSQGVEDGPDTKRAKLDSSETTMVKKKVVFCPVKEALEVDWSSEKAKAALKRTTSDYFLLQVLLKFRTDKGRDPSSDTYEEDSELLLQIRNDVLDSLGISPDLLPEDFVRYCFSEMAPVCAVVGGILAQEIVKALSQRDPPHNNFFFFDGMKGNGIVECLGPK
T1 sequence (Q9UBT2 whole entry): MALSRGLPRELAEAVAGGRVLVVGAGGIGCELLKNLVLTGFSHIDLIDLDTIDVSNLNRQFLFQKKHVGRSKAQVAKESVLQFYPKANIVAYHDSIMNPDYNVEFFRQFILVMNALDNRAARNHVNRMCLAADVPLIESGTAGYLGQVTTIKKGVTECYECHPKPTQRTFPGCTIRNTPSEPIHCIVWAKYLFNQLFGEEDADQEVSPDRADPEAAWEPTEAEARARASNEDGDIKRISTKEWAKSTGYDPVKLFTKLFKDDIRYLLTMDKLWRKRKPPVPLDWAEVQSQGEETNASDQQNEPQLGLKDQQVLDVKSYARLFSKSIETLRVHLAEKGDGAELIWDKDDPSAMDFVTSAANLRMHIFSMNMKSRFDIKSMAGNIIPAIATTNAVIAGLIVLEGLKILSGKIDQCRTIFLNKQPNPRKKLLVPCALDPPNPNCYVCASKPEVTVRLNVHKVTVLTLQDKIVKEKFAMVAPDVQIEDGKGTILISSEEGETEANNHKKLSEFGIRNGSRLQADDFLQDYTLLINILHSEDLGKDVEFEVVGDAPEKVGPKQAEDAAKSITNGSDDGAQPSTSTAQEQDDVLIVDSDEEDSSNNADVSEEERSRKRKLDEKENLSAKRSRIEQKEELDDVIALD

IC50 (SUMO-activating enzyme [1]): 36.3 µM (active) | IC50 (SUMO-activating enzyme [2]): 22.1 µM (active) | IC50 [3]: 6.17 µM (active)
SMILES: Cc1cc(=O)oc2cc(OCc3ccc(C(=O)OCC(=O)Nc4ccc(N(C)C)cc4)cc3)ccc12

SMILES: CCN(CC)CCCNc1[nH]c2ccccc2c2nc3ccc(OC)cc3c1-2
EC50 [4]: > 67.5 µM (inactive) | IC50 [5]: > 67.5 µM (inactive) | IC50 [6]: 31.7 µM (active) | AC50 [7]: 4.9 µM (active) | AC50 [8]: 11.6 µM (active) | AC50 [9]: 12.3 µM (active) | CC50 [10]: 15.1 µM (active) | AC50 [11]: < 0.15 µM (active) | AC50 [12]: > 20 µM (inactive) | AC50 (Paired box protein Pax-8): 6.91 µM (active) | CC50 [13]: 1.41 µM (active)

IC50 [14]: 3.69 µM (active) | EC50 (Beta-galactosidase): > 31.5 µM (inactive) | IC50 [15]: 22.8 µM (inactive) | IC50 [16]: > 32 µM | EC50 [17]: 1.08 µM (inconclusive) | AC50 [18]: 0.592 µM (active)
SMILES: O=C(C#Cc1cccc([N+](=O)[O-])c1)c1ccccc1
